Where only a bound is given, the exact number is not on record here.

In this assay the test system is Human MSCs. Kind of assay: Human chondrocyte differentiation assay (immunostaining for type II collagen, Sox9 and COMP). It is filed as cell-based. The conditions noted are these: 168 h, compound 1 μM, 7 days, vs DMSO vehicle, read-out: Biological Activity (increase in staining intensity compared to vehicle control). Here is the method: Human MSCs (50,000) were plated into each well of a 96-well plate and cultured overnight. Compounds (in DMSO solution) were added to the cells at a final concentration of 1 μM, and the cells were cultured for 7 days at 5% CO2, 37° C. The cells were fixed with 10% formalin solution at room temperature for 10 min, and immunostained using antibodies specific for type II collagen (Abcam), Sox9 (Santa Cruz) and cartilage oligomeric matrix protein (COMP, Santa Cruz), and fluorescently labeled secondary antibodies (Li-Cor). The total intensity of the staining was measured using Oddyssey CLx imaging system (Li-Cor). Vehicle (DMSO) was used as control to determine the basal level of chondrocyte differentiation. […] Representative data are shown in Table 1 [A: >50% increase in staining intensity compared to vehicle control; B: 30-50% increase in staining intensity compared to vehicle control].
In the case of `Cc1ccc(NC(=O)c2ccccc2C(=O)O)c(F)c1` [Compound 85], the activation at 1 µM fell in the range of 30 to 50%.

Consider `O=C(O)c1ccccc1C(=O)Nc1cccc(OC(F)(F)F)c1` [Compound 19], for which the activation at 1 µM is over 50%.

For the molecule `CC(=O)c1ccc(Cl)c(NC(=O)c2ccccc2C(=O)O)c1` [Compound 4], the activation at 1 µM is over 50%.

`O=C(O)c1ccccc1C(=O)Nc1nccs1` [Compound 29]: the activation at 1 µM is 30 to 50%.

For `COc1ccccc1NC(=O)c1ccccc1C(=O)O` [Compound 68], the activation at 1 µM was over 50%.

As for `Cc1cccc(C(=O)Nc2ccc(CCCO)cc2)c1C(=O)O` [Compound 189], the activation at 1 µM is over 50%.

In the case of `O=C(O)c1ccccc1C(=O)Nc1ccccc1CCO` [Compound 57], the activation at 1 µM was 30 to 50%.

With `N#Cc1ccc(NC(=O)c2ccccc2NS(=O)(=O)c2ccccc2)cc1` [Compound 77], the activation at 1 µM is over 50%.

With `O=C(O)c1ccccc1C(=O)Nc1ccc(CCCO)cc1OC(F)(F)F` [Compound 148], the activation at 1 µM lay in the range of 30 to 50%.

`O=C(O)c1ccccc1C(=O)Nc1ccc2c(c1)OCCO2` [Compound 64]: the activation at 1 µM is 30 to 50%.

Take `O=C(O)c1ccccc1C(=O)NCCOc1ccccc1` [Compound 81]: the activation at 1 µM was in the range of 30 to 50%.

On to `O=C(O)c1ccc(S(=O)(=O)Nc2ccccc2C(=O)O)cc1` [Compound 53], for which the activation at 1 µM was in the range of 30 to 50%.

Turning to `N#Cc1cc(NC(=O)c2ccccc2C(=O)O)ccc1Cl` [Compound 2], the activation at 1 µM was 30 to 50%.

Regarding `COCCc1ccc(NC(=O)c2ccccc2NS(=O)(=O)C(C)C)cc1` [Compound 162], the activation at 1 µM was in the range of 30 to 50%.

`CON=C(C)c1cccc(NC(=O)c2ccccc2C(=O)O)c1` [Compound 59]: the activation at 1 µM fell in the range of 30 to 50%.

In the case of `O=C(O)c1ccccc1C(=O)NCc1cc(C(F)(F)F)cc(C(F)(F)F)c1` [Compound 69], the activation at 1 µM fell in the range of 30 to 50%.

`O=C(CC1NC(=O)c2ccccc21)c1ccc(C(F)(F)F)cc1` (stereo not shown) [Compound 42]: the activation at 1 µM lay within 30 to 50%.

Turning to `COC(=O)c1ccccc1NC(=O)Nc1cccc(C(C)=O)c1` [Compound 193], the activation at 1 µM fell in the range of 30 to 50%.

Consider `CC(C)(CO)c1ccc(NC(=O)c2ccccc2C(=O)O)cc1` [Compound 32], for which the activation at 1 µM fell in the range of 30 to 50%.

In the case of `O=C(O)c1ccccc1C(=O)Nc1cc(Cl)cc(C(F)(F)F)c1` [Compound 12], the activation at 1 µM fell in the range of 30 to 50%.

Turning to `O=C(Nc1cccc(C(F)(F)F)c1)Nc1ccccc1C(=O)O` [Compound 196], the activation at 1 µM was in the range of 30 to 50%.

Consider `COc1cc(NC(=O)c2ccccc2C(=O)O)ccc1CCCO` [Compound 178], for which the activation at 1 µM lay in the range of 30 to 50%.

In the case of `CS(=O)(=O)Nc1ccccc1C(=O)Nc1ccc(Br)cc1` [Compound 46], the activation at 1 µM fell in the range of 30 to 50%.

Regarding `Cc1ccccc1NC(=O)Nc1ccccc1C(=O)O` [Compound 199], the activation at 1 µM is 30 to 50%.

For the molecule `O=C(O)c1ccc(CNC(=O)c2c(Cl)cccc2C(=O)O)cc1` [Compound 100], the activation at 1 µM fell in the range of 30 to 50%.

In the case of `N#Cc1cc(NC(=O)c2ccccc2C(=O)O)ccc1F` [Compound 36], the activation at 1 µM was 30 to 50%.

As to `O=C(O)c1ccccc1C(=O)Nc1ccc2c(c1)OCO2` [Compound 65], the activation at 1 µM is over 50%.

Consider `N#Cc1ccccc1C(=O)CC1OC(=O)c2ccccc21` (stereo not shown) [Compound 40], for which the activation at 1 µM was 30 to 50%.

As to `N#Cc1ccc(C(=O)CC2NC(=O)c3ccccc32)cc1` (stereo not shown) [Compound 24], the activation at 1 µM was over 50%.

On to `O=C(O)c1ccc(CNC(=O)c2ccccc2C(=O)O)c(Cl)c1` [Compound 96], for which the activation at 1 µM was in the range of 30 to 50%.

With `NS(=O)(=O)c1ccc(N2Cc3ccccc3C2=O)cc1` [Compound 26], the activation at 1 µM lay within 30 to 50%.

`O=C(Nc1ccc(CCCO)cc1)c1cccc(F)c1C(=O)O` [Compound 181]: the activation at 1 µM fell in the range of 30 to 50%.

For the molecule `COc1cccc(C(=O)NCc2ccc(C(=O)O)cc2)c1C(=O)O` [Compound 103], the activation at 1 µM was over 50%.

As to `COC(=O)c1ccccc1NC(=O)Nc1cccc(C(F)(F)F)c1` [Compound 195], the activation at 1 µM lay within 30 to 50%.

With `Cc1cnccc1NC(=O)c1ccccc1C(=O)O` [Compound 67], the activation at 1 µM is over 50%.

For the molecule `N#Cc1cc(Cl)cc(NC(=O)c2ccccc2C(=O)O)c1` [Compound 3], the activation at 1 µM was over 50%.

Regarding `CC(O)Cc1ccc(NC(=O)c2ccccc2C(=O)O)cc1` (stereo not shown) [Compound 52], the activation at 1 µM fell in the range of 30 to 50%.

As for `CN(c1cccc(NC(=O)c2ccccc2C(=O)O)c1)S(C)(=O)=O` [Compound 107], the activation at 1 µM lay within 30 to 50%.

Regarding `CC(C(=O)c1ccc(C#N)cc1)C1OC(=O)c2ccccc21` (stereo not shown) [Compound 23], the activation at 1 µM was over 50%.

On to `COc1ccc(NC(=O)c2ccccc2C(=O)O)cc1C#N` [Compound 7], for which the activation at 1 µM is over 50%.

Consider `O=C(Nc1ccccc1)Nc1ccccc1C(=O)O` [Compound 203], for which the activation at 1 µM lay in the range of 30 to 50%.

With `COc1ccc(OC)c(NC(=O)c2ccccc2C(=O)O)c1` [Compound 87], the activation at 1 µM is 30 to 50%.

As to `CC(=O)Nc1ccc(NC(=O)c2ccccc2C(=O)O)cc1` [Compound 142], the activation at 1 µM lay in the range of 30 to 50%.

Regarding `CS(=O)(=O)NCc1cccc(NC(=O)c2ccccc2C(=O)O)c1` [Compound 72], the activation at 1 µM is over 50%.

For the molecule `N#Cc1cc(F)cc(NC(=O)c2ccccc2C(=O)O)c1` [Compound 37], the activation at 1 µM was over 50%.

Consider `O=C(O)c1ccccc1C(=O)Nc1ccc(C(F)(F)F)c(F)c1` [Compound 10], for which the activation at 1 µM was in the range of 30 to 50%.

Consider `Cc1ccc(NC(=O)c2ccccc2C(=O)O)c(C#N)c1` [Compound 13], for which the activation at 1 µM is 30 to 50%.

In the case of `N#Cc1cccc(C(=O)CC2NC(=O)c3ccccc32)c1` (stereo not shown) [Compound 39], the activation at 1 µM fell in the range of 30 to 50%.

Turning to `COC(=O)c1ccccc1NC(=O)Nc1ccccc1C(F)(F)F` [Compound 194], the activation at 1 µM was in the range of 30 to 50%.

Turning to `Cc1ccc2c(c1)C(=O)N(c1ccc(C(=O)O)cc1)C2=O` [Compound 33], the activation at 1 µM was in the range of 30 to 50%.

Turning to `O=C(O)c1ccccc1C(=O)Nc1ccon1` [Compound 80], the activation at 1 µM lay in the range of 30 to 50%.

In the case of `CC(=O)c1ccc(OC(F)F)c(NC(=O)c2ccccc2C(=O)O)c1` [Compound 14], the activation at 1 µM lay in the range of 30 to 50%.

`O=C(O)c1ccccc1C(=O)NCc1ccccc1OC(F)F` [Compound 86]: the activation at 1 µM was in the range of 30 to 50%.

As for `CS(=O)(=O)c1ccc(C(=O)CC2OC(=O)c3ccccc32)cc1` (stereo not shown) [Compound 44], the activation at 1 µM lay in the range of 30 to 50%.

For the molecule `O=C(O)Cc1ccc(CNC(=O)c2ccccc2C(=O)O)cc1` [Compound 164], the activation at 1 µM was over 50%.

`NS(=O)(=O)c1ccc(N2C(=O)c3ccccc3C2=O)cc1` [Compound 15]: the activation at 1 µM lay in the range of 30 to 50%.

Consider `O=C(O)c1cccc(F)c1C(=O)Nc1ccc(CCCO)cc1` [Compound 182], for which the activation at 1 µM lay within 30 to 50%.

For `O=C(O)c1ccc(CNC(=O)c2cccc(Cl)c2C(=O)O)cc1` [Compound 99], the activation at 1 µM fell in the range of 30 to 50%.

Turning to `CC(=O)c1cc(NC(=O)c2ccccc2C(=O)O)ccc1Cl` [Compound 5], the activation at 1 µM was 30 to 50%.

Take `N#Cc1ccc(C(=O)CC2OC(=O)c3ccccc32)cc1` (stereo not shown) [Compound 25]: the activation at 1 µM is 30 to 50%.

Regarding `CC(=O)N(C)Cc1cccc(NC(=O)c2ccccc2C(=O)O)c1` [Compound 50], the activation at 1 µM lay within 30 to 50%.

Regarding `CN(C(N)=O)c1ccccc1C(=O)Nc1ccc(C#N)cc1` [Compound 75], the activation at 1 µM was 30 to 50%.

For `CC(=O)CCc1cccc(NC(=O)c2ccccc2C(=O)O)c1` [Compound 145], the activation at 1 µM was in the range of 30 to 50%.

With `O=C(O)c1cc(CCCO)ccc1NC(=O)c1ccccc1C(=O)O` [Compound 176], the activation at 1 µM was in the range of 30 to 50%.

With `O=C(O)c1ccccc1C(=O)Nc1ccccc1OCC(F)(F)F` [Compound 83], the activation at 1 µM is over 50%.

As for `O=C(O)c1ccc(CNC(=O)c2cccc(F)c2C(=O)O)cc1` [Compound 93], the activation at 1 µM lay within 30 to 50%.

Take `COC(=O)c1ccccc1NC(=O)Nc1ccccc1C` [Compound 197]: the activation at 1 µM lay within 30 to 50%.

For `O=C(O)c1ccccc1C(=O)Nc1cccc(C(F)(F)F)c1` [Compound 18], the activation at 1 µM was over 50%.

With `Cc1cc(NC(=O)c2ccccc2C(=O)O)ccn1` [Compound 66], the activation at 1 µM is 30 to 50%.

In the case of `Cc1ncsc1NC(=O)c1ccccc1C(=O)O` [Compound 22], the activation at 1 µM lay in the range of 30 to 50%.

For the molecule `N#Cc1cc(NC(=O)c2ccccc2C(=O)O)cc(C(F)(F)F)c1` [Compound 9], the activation at 1 µM is over 50%.

As to `CN(CCO)S(=O)(=O)c1ccccc1NC(=O)c1ccc(F)cc1` [Compound 125], the activation at 1 µM fell in the range of 30 to 50%.

Consider `COc1cccc(NC(=O)c2ccccc2C(=O)O)c1` [Compound 48], for which the activation at 1 µM is 30 to 50%.

For the molecule `COC(=O)N(C)Cc1cccc(NC(=O)c2ccccc2C(=O)O)c1` [Compound 49], the activation at 1 µM fell in the range of 30 to 50%.

Turning to `CC(=O)c1ccc(F)c(NC(=O)c2ccccc2C(=O)O)c1` [Compound 30], the activation at 1 µM fell in the range of 30 to 50%.

For `O=C(O)c1ccc(C(=O)Nc2ccccc2S(=O)(=O)N2CCOCC2)cc1` [Compound 147], the activation at 1 µM was in the range of 30 to 50%.

On to `N#Cc1cccc(NC(=O)c2ccccc2C(=O)O)c1F` [Compound 35], for which the activation at 1 µM lay within 30 to 50%.

As for `COc1ccc2c(c1)C(=O)N(c1ccc(C(=O)O)cc1)C2=O` [Compound 16], the activation at 1 µM is over 50%.

Take `O=C(O)c1ccccc1C(=O)Nc1ccc(Cl)cc1C(F)(F)F` [Compound 11]: the activation at 1 µM fell in the range of 30 to 50%.
